# Measurements: US5672712A, “Thiazoline derivatives” (Taisho Pharmaceutical Co., Ltd., priority 1994, dated 1997)
# Structures can show the parent of a compound that is named as a salt.
# Tests used:
# [1] = target: T1, fibrinogen receptor (GpIIb/IIIa) on blood platelet (Homo sapiens, UniProt P05106+P08514); assay: Human Blood Platelet Fibrinogen Binding Test (125I labeled human fibrinogen, ADP 10 μM); conditions: human platelet 125I-fibrinogen binding
# T1 construct: fibrinogen-free blood platelet suspension; endogenous in cells; host or cells: human blood platelets (from citrated venous blood of a healthy donor, gel-filtered)
# T1 sequence (P08514 32-887 limits assumed): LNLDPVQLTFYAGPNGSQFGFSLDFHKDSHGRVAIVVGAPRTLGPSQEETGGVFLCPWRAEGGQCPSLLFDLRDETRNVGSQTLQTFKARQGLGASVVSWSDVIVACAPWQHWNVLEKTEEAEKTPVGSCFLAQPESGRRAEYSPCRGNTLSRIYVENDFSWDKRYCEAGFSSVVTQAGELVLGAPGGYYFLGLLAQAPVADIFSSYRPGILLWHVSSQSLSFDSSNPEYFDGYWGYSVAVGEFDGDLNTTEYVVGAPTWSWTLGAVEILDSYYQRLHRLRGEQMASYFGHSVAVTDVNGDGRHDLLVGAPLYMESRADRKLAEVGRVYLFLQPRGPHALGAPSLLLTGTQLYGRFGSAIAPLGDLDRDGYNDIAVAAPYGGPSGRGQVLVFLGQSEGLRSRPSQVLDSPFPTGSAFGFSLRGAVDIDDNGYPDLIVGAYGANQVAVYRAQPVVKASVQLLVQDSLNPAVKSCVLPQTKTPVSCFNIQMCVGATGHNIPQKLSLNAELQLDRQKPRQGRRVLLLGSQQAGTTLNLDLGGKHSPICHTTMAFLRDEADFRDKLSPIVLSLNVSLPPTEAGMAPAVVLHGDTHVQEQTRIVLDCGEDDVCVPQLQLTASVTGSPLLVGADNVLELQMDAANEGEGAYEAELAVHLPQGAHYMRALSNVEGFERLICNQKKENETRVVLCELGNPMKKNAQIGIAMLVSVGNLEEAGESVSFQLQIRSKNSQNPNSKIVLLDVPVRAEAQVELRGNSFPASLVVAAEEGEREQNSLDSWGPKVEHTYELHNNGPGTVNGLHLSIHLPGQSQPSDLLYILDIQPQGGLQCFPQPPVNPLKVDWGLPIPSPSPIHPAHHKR
# T1 sequence (P08514 891-1039 partner limits assumed): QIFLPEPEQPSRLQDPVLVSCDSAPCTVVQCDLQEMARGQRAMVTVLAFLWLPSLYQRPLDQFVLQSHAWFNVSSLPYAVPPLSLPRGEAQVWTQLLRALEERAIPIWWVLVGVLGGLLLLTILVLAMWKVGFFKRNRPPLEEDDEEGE
# T1 sequence (P05106 27-788): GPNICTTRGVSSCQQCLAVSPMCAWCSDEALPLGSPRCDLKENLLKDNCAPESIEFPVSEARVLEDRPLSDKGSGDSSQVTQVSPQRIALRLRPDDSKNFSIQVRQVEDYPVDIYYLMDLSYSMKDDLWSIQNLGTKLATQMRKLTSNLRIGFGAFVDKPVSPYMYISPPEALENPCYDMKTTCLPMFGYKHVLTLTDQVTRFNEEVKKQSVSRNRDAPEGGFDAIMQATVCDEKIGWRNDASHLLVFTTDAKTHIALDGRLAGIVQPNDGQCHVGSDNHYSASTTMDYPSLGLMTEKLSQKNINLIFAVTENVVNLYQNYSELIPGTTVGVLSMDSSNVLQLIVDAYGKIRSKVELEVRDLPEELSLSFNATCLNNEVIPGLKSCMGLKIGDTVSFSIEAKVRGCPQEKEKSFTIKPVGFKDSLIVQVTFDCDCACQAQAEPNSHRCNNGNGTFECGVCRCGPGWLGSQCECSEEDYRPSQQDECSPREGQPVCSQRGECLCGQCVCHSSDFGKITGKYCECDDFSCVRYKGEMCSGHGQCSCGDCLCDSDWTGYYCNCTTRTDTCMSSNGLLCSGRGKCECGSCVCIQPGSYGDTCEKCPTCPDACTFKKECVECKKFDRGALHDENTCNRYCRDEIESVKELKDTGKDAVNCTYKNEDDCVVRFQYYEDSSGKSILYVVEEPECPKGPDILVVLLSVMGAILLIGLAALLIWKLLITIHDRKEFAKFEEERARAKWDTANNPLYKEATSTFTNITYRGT
# Experimental: Experiment 1 [Human Blood Platelet Fibrinogen Binding Test]
# The test was carried out referring to the methods of G. A. Marguerie (J. Biol. Chem., vol. 254, pages. 5357-5363, 1979) and N. S. Nicholson (Thromb. Res., vol. 50, pages 567-578, 1991).
# (§1) Citrated blood (the volume ratio of 3.13% sodium citrate solution and blood is 1:9) was collected from the cubital vein of a healthy human who had not received any drugs known to affect the function of blood platelet within 2 weeks prior to starting the test, and centrifuged at 120× g at room temperature for 15 minutes to give platelet rich plasma (PRP) as a supernatant.
# To the above PRP was added one fifth volume of an ACD solution (citric acid/sodium citrate/dextrose), followed by centrifugation at 1200× g for 15 minutes. The precipitate was suspended in a Tyrode's solution ([…], 2 mM Mg^2+), followed by gel filtration using Sepharose 2B column to give a fibrinogen-free blood platelet suspension (1×10^9 /ml). The binding test was carried out by using the fibrinogen-free blood platelet suspension, the solutions of the compounds of Formula (I) in dimethyl sulfoxide which were each adjusted to the desired concentration by diluting with a physiological saline solution as test drugs, ADP (final concentration: 10 μM) and ^125 I labeled human fibrinogen, and then the binding inhibitory rate of the test drug was calculated.
# N-(2-Carboxyethyl)-2-(4-amidinobenzoylimino)-3,4-dimethyl-3H-thiazoline-5-carboxamide hydrobromide (described in WO 94/02472; referred to as "Comparative drug" in the following experiments) was used as a comparative drug. The drug solution was prepared in the same manner as described above, and tested as described above.
# The results are shown in Table 1 in which the compound numbers are the same as defined in the following examples and are also used in the following experiments.
# [2] = system: blood platelet aggregation; assay: Human in vitro Blood Platelet Aggregation Inhibition Test (ADP-induced, PRP); assay type: cell-based; conditions: ADP 7 μM, 37° C., 50% inhibition of maximum aggregation
# Experimental: Experiment 2 [Human in vitro Blood Platelet Aggregation Inhibition Test]
# as §1, with “supernatant. The remaining precipitate was further centrifuged at 1500× g for 10 minutes to give platelet poor plasma (PPP) as a supernatant. The blood platelet counts of PRP were adjusted to 50~60×10^4 /μl by diluting with PPP.” for “supernatant.”
# Blood platelet aggregation was monitored according to the method of Born G. V. R., [Nature, vol. 194, page 927 (1962)] using adenosine diphosphate (produced by Sigma Co.; hereinafter referred to as "ADP") as an aggregation-inducing substance. That is, a solution of the compound of Formula (I) as a test drug in dimethyl sulfoxide was adjusted to the desired concentration with a physiological saline solution. 25 μl of the solution was added to 250 μl of PRP and incubated at 37° C. for 3 minutes, and 25 μl of ADP (final concentration: 7 μM) was added thereto. […]
# [3] = Solubility Test (0.1M phosphate buffer, pH 7); assay type: physicochemical; conditions: aqueous buffer, 0.1M phosphate buffer pH 7, 25° C.
# Experimental: Experiment 3 [Solubility Test]
# Solubility test was carried out referring to the method of S. Miyazaki et al. [Chem. Pharm. Bull., vol. 23, page 1197 (1975)].
# 9.511 g of disodium hydrogenphosphate weighed accurately was dissolved in 800 ml of water. The solution was adjusted to pH 7.0 by adding sodium dihydrogenphosphate, and the total volume of the solution was made exactly 1000 ml to give a 0.1M phosphate buffer (pH 7). To 1.0 ml of the buffer solution measured exactly was added an excess amount for the solubility limit of the test drug. The suspension was treated by supersonic waves for 5 minutes and stirred on a water bath at 25° C. for 24 hours. After removal of the insoluble substance by using a membrane filter (0.22 μm), the filtrate was appropriately diluted to give a test solution. Separately, 1 mg of the test drug weighed accurately was dissolved in the eluate to make exactly 100 ml to give a standard solution. The test solution and the standard solution were quantified by high performance liquid chromatography method under the following procedure conditions, and the solubility of the test drug was calculated.
# Detection instrument: Ultraviolet spectrophotometer (Detection wave length: 246 nm)
# (§2) Column: ODS column 4.6.phi.×150 mm (TSK Gel ODS 80TM)
# Column temperature: A definite temperature in the vicinity of 50° C. […]
# [4] = Stability Test (pH 7 phosphate buffer, 80° C.); assay type: physicochemical; conditions: 20 mg in 1000 ml; for remaining at 4 h: After 4 hours; for remaining at 4 h / remaining at 8 h / remaining at 24 h: read-out: Remaining rate of Test drug; for remaining at 8 h: After 8 hours; for remaining at 24 h: After 24 hours; for Remaining rate of Test drug: Immediately after
# Experimental: Experiment 4 [Stability Test]
# Stability test was carried out referring to the method of A. K. Amirjahed et al [J. Pharm. Sci., vol. 66, page 785 (1977)].
# 20 mg of Compound 8 obtained in the following example and 20 mg of Comparative drug, each weighed accurately, were each dissolved in 0.1N phosphate buffer (a buffer of a suitable amount of 0.1M potassium dihydrogenphosphate mixed with a suitable amount of 0.1M disodium hydrogenphosphate to adjust to pH 7) to make exactly 1000 ml to give standard solutions, respectively. The solution was dispensed into ampules, and they were stored at 80° C. for 4 hours, 8 hours and 24 hours to prepare test solutions.
# 20 μl of the test solution and 20 μl of the standard solution were each quantified by high performance liquid chromatography method under the following procedure conditions, and the peak areas of Compound 8 and Comparative drug at the storage times were determined, and the remaining rate was calculated by using the following formula, and the results are shown in Table 4.
# Detection instrument: Ultraviolet spectrophotometer (Detection wave length: 247 nm)
# as §2
# Column temperature: A definite temperature in the vicinity of 50° C.
# [Compound 8] 1 ml of phosphoric acid and 5 g of sodium dodecylsulfate (SDS) are added to 1000 ml of a mixture of water and acetonitrile (65:35).
# [Comparative drug] 1 ml of phosphoric acid and 3 g of sodium dodecylsulfate (SDS) are added to 1000 ml of a mixture of water and acetonitrile (60:40).
# Formula: Remaining rate (%)= [formula]
smiles,measurement,setting,value
"Cc1c(C(=O)NCCC(=O)O)sc(=NC(=O)c2ccc(C(=N)NCCCC(=O)OC3CCCCC3)cc2)n1C1CC1 [Compound 49, N-(2-carboxyethyl)-2-{4-[N-(3-cyclohexyloxycarbonylpropyl)amidino]benzoylimino}-3-cyclopropyl-4-methyl-3H-thiazoline-5-carboxamide]",IC50,[1],7.2 nM
"Cc1c(C(=O)NCCC(=O)O)sc(=NC(=O)c2ccc(C(=N)NCCCC(=O)NC3CCCCC3)cc2)n1C [Compound 12, N-(2-carboxyethyl)-2-{4-[N-(3-cyclohexylaminocarbonylpropyl)amidino]benzoylimino}-3,4-dimethyl-3H-thiazoline-5-carboxamide]",IC50,[1],4.7 nM
"Cc1c(C(=O)NCCC(=O)O)sc(=NC(=O)c2ccc(C(=N)NCCCC(=O)OC3CCCCC3)cc2)n1C(C)C [Compound 17, N-(2-carboxyethyl)-2-{4-[N-(3-cyclohexyloxycarbonylpropyl)amidino]benzoylimino}-3-isopropyl-4-methyl-3H-thiazoline-5-carboxamide]",IC50,[1],12.6 nM
"Cc1c(C(=O)NCCC(=O)O)sc(=NC(=O)c2ccc(C(=N)NCCC(=O)O)cc2)n1C [Compound 9, N-(2-carboxyethyl)-2-{4-[N-(2-carboxyethyl)amidino]-benzoylimino}-3,4-dimethyl-3H-thiazoline-5-carboxamide]",IC50,[1],16.5 nM
"Cc1c(C(=O)NCCC(=O)O)sc(=NC(=O)c2ccc(C(=N)NCCCC(=O)O)cc2)n1C [Compound 8, N-(2-carboxyethyl)-2-{4-[N-(3-carboxypropyl)amidino]benzoylimino}-3,4-dimethyl-3H-thiazoline-5-carboxamide]",IC50,[1],25.6 nM
same,IC50,[2],39 nM
same,solubility at 24 h,[3],20 mg/mL
same,remaining at 4 h,[4],97.8%
same,remaining at 8 h,[4],95.7%
same,remaining at 24 h,[4],88.9%
same,Remaining rate of Test drug,[4],100%
"Cc1c(C(=O)NCCC(=O)O)sc(=NC(=O)c2ccc(C(=N)N)cc2)n1C [Comparative drug, N-(2-Carboxyethyl)-2-(4-amidinobenzoylimino)-3,4-dimethyl-3H-thiazoline-5-carboxamide hydrobromide, reference compound]",IC50,[1],5 nM
same,IC50,[2],17 nM
same,solubility at 24 h,[3],0.03 mg/mL
same,remaining at 4 h,[4],82.2%
same,remaining at 8 h,[4],68.4%
same,remaining at 24 h,[4],32.3%
same,Remaining rate of Test drug,[4],100%
"Cc1c(C(=O)NCCC(=O)O)sc(=NC(=O)c2ccc(C(=N)NCCCC(=O)OC3CCCCC3)cc2)n1C [Compound 11, N-(2-carboxyethyl)-2-{4-[N-(3-cyclohexyloxycarbonylpropyl)amidino]benzoylimino}-3,4-dimethyl-3H-thiazoline-5-carboxamide]",IC50,[1],8.2 nM
"Cc1c(C(=O)NCCC(=O)O)sc(=NC(=O)c2ccc(C(=N)NCCCC(=O)OC3CCCCC3)cc2)n1C1CCC1 [Compound 56, N-(2-carboxyethyl)-2-{4-[N-(3-cyclohexyloxycarbonylpropyl)amidino]benzoylimino}-3-cyclobutyl-4-methyl-3H-thiazoline-5-carboxamide]",IC50,[1],11.1 nM
"Cc1c(C(=O)NCCC(=O)O)sc(=NC(=O)c2ccc(C(=N)NCCCCCC(=O)Nc3ccccc3)cc2)n1C1CC1 [Compound 51, N-(2-carboxyethyl)-2-{4-[N-(5-phenylaminocarbonylpentyl)amidino]benzoylimino}-3-cyclopropyl-4-methyl-3H-thiazoline-5-carboxamide]",IC50,[1],8.6 nM
